Test results published in patent US20170056336A1, “CO-TARGETING ANDROGEN RECEPTOR SPLICE VARIANTS AND MTOR SIGNALING PATHWAY FOR THE TREATMENT OF CASTRATION-RESISTANT PROSTATE CANCER” (British Columbia Cancer Agency Branch, priority 2015, published 2017).

Tests used:
[1] = tested on: LNCaP95 cells; assay: Cell proliferation BrdU immunoassay; format: cell-based, human; settings: R1881 0.1 nM, 48 h, serum-free, Compound A 25 uM, enzalutamide 10 uM, BEZ-235 15 nM, everolimus 10 nM
[2] = tested on: mTOR and AR pathways in LNCaP95 cells; assay: Western blot analysis of mTOR and AR pathways in LNCaP95 cells; format: cell-based, human; settings: for expression of UBE2C / pS6 levels: enzalutamide 10 uM; for pS6 levels: regardless of androgen status; for BEZ-235-increased protein levels of FL-AR, AR-V7 and PSA: elevations caused by BEZ-235 15 nM, LNCaP95 and LNCaP cells
Method: Cells were harvested and whole-cell lysate (10 to 15 ug) was subjected to SDS-PAGE. Antibodies used were: AR (1:1000; Santa Cruz), AR-V7 (1:400; Precision), p110α (1:500; BD Bioscience), p110β (1:1000; abcam), […] (1:1000; abcam), p110δ (1:1000; abcam), UBE2C (Boston Biochem; 1:1000), PTEN (1:1000), pS6 (1:2000), pAktThr308 (1:1000), pAktSer473 (1:2000), p4EBP1 (1:1000), total-Akt (1:1000), total-S6 (1:1000), total-4EBP1 (1:1000), pERK/MAPK (1:1000), total-ERK/MAPK (1:1000) from Cell Signaling technology (Danvers, Mass.). β-actin (1:10,000, Abcam) was used as a loading control.
Protein levels of PSA were undetectable in LNCaP95 cells.

[3] = tested on: LNCaP95 xenografts; assay: Western blot analyses of protein lysates from xenografts; format: in vivo, mice
[4] = tested on: LNCaP95 xenografts; assay: Immunohistochemistry of harvested xenografts; format: in vivo, mice
[5] = tested on: genes regulated by FL-AR and AR-V7 in LNCaP95 cells; assay: Gene expression analysis (quantitative real-time RT-PCR) in LNCaP95 cells; format: cell-based, human
[6] = target: T1, AR NTD (Homo sapiens, UniProt P10275); assay: AR NTD transactivation assay in LNCaP cells; format: cell-based; settings: IL-6 50 ng/ml, 24 h
T1 sequence (P10275 1-558): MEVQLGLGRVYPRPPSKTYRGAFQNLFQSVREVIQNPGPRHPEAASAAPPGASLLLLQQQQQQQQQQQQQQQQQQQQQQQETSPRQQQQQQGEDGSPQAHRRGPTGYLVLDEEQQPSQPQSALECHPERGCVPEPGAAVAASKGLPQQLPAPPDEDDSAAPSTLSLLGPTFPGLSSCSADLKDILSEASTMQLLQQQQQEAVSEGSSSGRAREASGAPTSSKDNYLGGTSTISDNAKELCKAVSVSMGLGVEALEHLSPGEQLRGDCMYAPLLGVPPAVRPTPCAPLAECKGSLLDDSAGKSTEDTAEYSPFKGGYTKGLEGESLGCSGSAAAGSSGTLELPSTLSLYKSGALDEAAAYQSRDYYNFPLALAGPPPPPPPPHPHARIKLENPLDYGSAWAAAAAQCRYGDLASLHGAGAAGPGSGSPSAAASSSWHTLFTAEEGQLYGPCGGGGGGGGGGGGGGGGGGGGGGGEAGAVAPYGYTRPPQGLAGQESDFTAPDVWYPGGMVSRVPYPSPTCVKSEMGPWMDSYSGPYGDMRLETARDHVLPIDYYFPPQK
Method: Transactivation assays of the AR NTD were performed in LNCaP and LNCaP95 cells cotransfected with p5xGal4UAS-TATA-luciferase and AR NTD-Gal4DBD (FIG. 2D). […] LNCaP95 cells were harvested 24 h after the treatment of indicated compounds.
The AR NTD is essential for full transcriptional activities (Quayle, S. N. et. al., PNAS 2007, 104, 1331-1336). In LNCaP cells, transactivation of the AR NTD can be induced with IL-6 or by stimulation of the PKA pathway with FSK. In LNCaP95 cells, there is high intrinsic activity of the AR NTD which cannot be further induced by stimulation of these pathways.

[7] = target: T2, AR (Homo sapiens, UniProt P10275, T878A); assay: PSA-, ARR3-, PB-luciferase AR reporter assay in LNCaP95 cells; settings: LNCaP95 cells treated with androgen and BEZ-235 15 nM
T2 sequence (P10275 1-920 T878A): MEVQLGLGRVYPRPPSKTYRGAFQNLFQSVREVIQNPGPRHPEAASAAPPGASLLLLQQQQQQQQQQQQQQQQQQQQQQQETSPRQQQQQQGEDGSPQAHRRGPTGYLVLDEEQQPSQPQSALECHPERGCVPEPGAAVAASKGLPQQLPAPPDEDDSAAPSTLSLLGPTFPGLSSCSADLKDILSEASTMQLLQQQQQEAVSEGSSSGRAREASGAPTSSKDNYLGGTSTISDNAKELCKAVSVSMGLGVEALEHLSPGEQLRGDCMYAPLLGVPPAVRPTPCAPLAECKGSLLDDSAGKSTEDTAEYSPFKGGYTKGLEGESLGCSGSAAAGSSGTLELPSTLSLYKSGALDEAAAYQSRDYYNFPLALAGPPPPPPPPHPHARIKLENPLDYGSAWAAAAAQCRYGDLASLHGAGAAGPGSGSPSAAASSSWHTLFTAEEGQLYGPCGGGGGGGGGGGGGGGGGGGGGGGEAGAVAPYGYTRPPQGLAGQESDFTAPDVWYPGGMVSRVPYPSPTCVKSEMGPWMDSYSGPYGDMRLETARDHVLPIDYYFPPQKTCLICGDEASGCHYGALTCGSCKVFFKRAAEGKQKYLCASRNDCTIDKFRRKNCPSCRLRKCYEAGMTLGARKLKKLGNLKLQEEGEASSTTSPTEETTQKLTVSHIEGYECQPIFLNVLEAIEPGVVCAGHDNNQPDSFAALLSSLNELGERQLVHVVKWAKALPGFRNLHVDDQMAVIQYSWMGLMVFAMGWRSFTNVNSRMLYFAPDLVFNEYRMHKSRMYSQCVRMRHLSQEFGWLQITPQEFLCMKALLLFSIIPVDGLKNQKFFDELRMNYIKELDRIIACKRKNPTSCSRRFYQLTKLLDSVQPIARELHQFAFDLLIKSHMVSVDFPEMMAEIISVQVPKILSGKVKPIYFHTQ

[8] = tested on: mTOR and AR pathways in parental LNCaP cells; assay: Western blot analysis of mTOR and AR pathways in parental LNCaP cells; format: cell-based, human; settings: parental LNCaP cells, R1881 1 nM
[9] = harvested tumors, Compound A 100 mg/kg, BEZ-235 5 mg/kg
[10] = absence of androgen, with BEZ-235
[11] = in response to androgen, Compound A 35 uM
[12] = LNCaP95 cells, Compound A 25 uM

## CO[C@H]1C[C@@H]2CC[C@@H](C)[C@@](O)(O2)C(=O)C(=O)N2CCCC[C@H]2C(=O)O[C@H]([C@H](C)C[C@@H]2CC[C@@H](OCCO)[C@H](OC)C2)CC(=O)[C@H](C)/C=C(\C)[C@@H](O)[C@@H](OC)C(=O)[C@H](C)C[C@H](C)/C=C/C=C/C=C/1C [everolimus]
[1]
  proliferation (BrdU incorporation): inhibited
[2]; LNCaP95 cells, BEZ-235 15 nM, everolimus
  pAkt: without decreasing
[2]; LNCaP95 cells, absence of androgen, everolimus
  levels of UBE2C: reduced
[2]; LNCaP95 cells, titration experiments
  protein levels of FL-AR: increased
[2]; LNCaP95 cells, titration, BEZ-235 15 nM, everolimus 10 nM
  pS6 ribosomal protein: reduced

## CC(C)(c1ccc(OC[C@H](O)CO)cc1)c1ccc(OC[C@H](O)CCl)cc1 [Compound A]
[3]; harvested tumors, normalized to total 4EBP1
  levels of p4EBP1: no significant change
[3]; harvested tumors, normalized to total Akt
  levels of pAkt: no significant change
[3]; [9]
  protein levels of UBE2C: reduced
  protein levels of pS6: reduced
[3]; in vivo, monotherapies
  protein levels of FKBP5: reduced
[4]
  apoptosis (TUNEL staining): increased
  proliferation (Ki67 staining): significantly decreased
[4]; immunohistochemistry
  UBE2C staining: reduced
  pS6 staining: reduced
[5]; absence of androgen
  transcript levels of AR-V7 target genes (UBE2C, CDC20, Akt1): consistently reduced
[5]; [10]
  BEZ-235-induced increase in transcript levels of AR-V7: blocked
  BEZ-235-induced levels of PSA transcript: blocked
[5]; [11]
  expression of FKBP5: inhibited
  expression of KLK3: inhibited
  expression of TMPRSS2: inhibited
[5]; monotherapy, regardless of androgen
  UBE2C levels: attenuated
[6]
  AR-NTD transactivation induced by IL-6: significantly inhibited
[7]
  BEZ-235-increased PSA-, ARR3- and PB-luciferase activities: blocked
[8]
  androgen-induced FKBP5: poor inhibitor
  androgen-induced levels of PSA: comparable to enzalutamide
[1]
  proliferation (BrdU incorporation): inhibited
[2]; [12]
  expression of UBE2C: markedly reduced
  pS6 levels: reduced
[2]; LNCaP95 cells, presence of androgen (R1881 1 nM), Compound A 25 uM
  levels of FKBP5: no effect
[2]
  BEZ-235-increased protein levels of FL-AR, AR-V7 and PSA: at least in part attenuated

## CNC(=O)c1ccc(N2C(=S)N(c3ccc(C#N)c(C(F)(F)F)c3)C(=O)C2(C)C)cc1F [enzalutamide, 4-(3-(4-cyano-3-(trifluoromethyl)phenyl)-5,5-dimethyl-4-oxo-2-thioxoimidazolidin-1-yl)-2-fluoro-N-methylbenzamide]
[8]
  androgen-induced levels of PSA: blocking
[2]; [12]
  expression of UBE2C: not
  pS6 levels: decreased
[2]
  BEZ-235-increased protein levels of FL-AR, AR-V7 and PSA: at least in part attenuated
